Test results published in patent publication EP0238178B1, “Novel derivatives of erythromycylamine” (ELI LILLY AND COMPANY, priority 1986, dated 1987).
Converted amounts (≈) assume the structure as drawn. Read-outs that look alike come from different tables or passages of the source.

Assays:
[1] = test system: Staphylococcus aureus S13E; test: MIC, standard agar-dilution assay; assay type: cell-based
[2] = test system: Klebsiella pneumoniae X68; test: MIC, standard agar-dilution assay; assay type: cell-based; settings: read-out: MIC
[3] = test system: Staphylococcus aureus X1.1; test: MIC, standard agar-dilution assay; assay type: cell-based; settings: read-out: MIC
[4] = test system: Haemophilus influenzae C.L.; test: MIC, standard agar-dilution assay; assay type: cell-based; settings: Ampicillin-sensitive strain, read-out: MIC
[5] = test system: Haemophilus influenzae 76; test: MIC, standard agar-dilution assay; assay type: cell-based; settings: Haemophilus influenzae 76, Ampicillin-resistant strain; read-out: MIC
[6] = test system: Streptococcus pneumoniae Park I; test: MIC, standard agar-dilution assay; assay type: cell-based; settings: read-out: MIC
[7] = test system: Staphylococcus epidermidis 222; test: MIC, standard agar-dilution assay; assay type: cell-based; settings: read-out: MIC
Escherichia coli EC14 = test: MIC, standard agar-dilution assay; assay type: cell-based; settings: read-out: MIC
[8] = test system: Streptococcus sp. group D 2041; test: MIC, standard agar-dilution assay; assay type: cell-based; settings: read-out: MIC
[9] = test system: Streptococcus pyogenes C203; test: MIC, standard agar-dilution assay; assay type: cell-based; settings: read-out: MIC
[10] = test system: Streptococcus sp. group D X66; test: MIC, standard agar-dilution assay; assay type: cell-based; settings: Streptococcus sp. group D X66; read-out: MIC
Streptococcus pneumoniae = test: Experimental bacterial infection in mice, ED50; assay type: in vivo; settings: two doses, dose protecting 50% of animals; for ED50: Streptococcus pneumoniae
Protocol: (§1) The new derivatives of this invention have also shown in vivo antimicrobial activity against experimental bacterial infections. When two doses of test compound were administered to mice in experimental infections, the activity observed was measured as an EDso value [effective dose in mg/kg to protect 50% of the test animals: see Warren Wick, et al., J. Bacteriol. 81, 233-235 (1961)].

Staphylococcus aureus = test: Experimental bacterial infection in mice, ED50; assay type: in vivo; settings: two doses, dose protecting 50% of animals; for ED50: Staphylococcus aureus
Protocol: as §1

Streptococcus pyogenes = test: Experimental bacterial infection in mice, ED50; assay type: in vivo; settings: two doses, dose protecting 50% of animals; for ED50: Streptococcus pyogenes
Protocol: as §1

[11] = test system: Staphylococcus aureus X400; test: MIC, standard agar-dilution assay; assay type: cell-based; settings: Staphylococcus aureus X400, Methicillin-resistant strain, inducibly-resistant to erythromycin; read-out: MIC
Description: (§2) In addition to excellent in vitro activity against erythromycin-sensitive bacteria, several members of this new series have shown in vitro activity against erythromycin-resistant strains. These include strains which are inducibly-resistant to erythromycin (S.. aureus V41 and X400 and S. epidermidis EPI1) and even strains which are constitutively-resistant (S. epidermidis 270).

[12] = test system: Staphylococcus aureus V41; test: MIC, standard agar-dilution assay; assay type: cell-based; settings: Staphylococcus aureus V41, Penicillin-resistant strain, inducibly-resistant to erythromycin; read-out: MIC
Description: as §2

[13] = sc, subcutaneous, read-out: Subcutaneous ED50

| Compound | MIC [1] [µg/mL] | MIC [2] [µg/mL] | MIC [3] [µg/mL] | MIC [4] [µg/mL] | MIC [5] [µg/mL] | MIC [6] [µg/mL] | MIC [7] [µg/mL] | MIC (Escherichia coli EC14) [µg/mL] | MIC [8] [µg/mL] | MIC [9] [µg/mL] | MIC [10] [µg/mL] | ED50 (Streptococcus pneumoniae; po, read-out: Oral ED50) [mg/kg] | ED50 (Staphylococcus aureus; po, read-out: Oral ED50) [mg/kg] | ED50 (Streptococcus pyogenes; po, read-out: Oral ED50) [mg/kg] | Oral ED50 (Streptococcus pneumoniae) [mg/kg] | Oral ED50 (Streptococcus pyogenes) [mg/kg] | other results |
| --- | --- | --- | --- | --- | --- | --- | --- | --- | --- | --- | --- | --- | --- | --- | --- | --- | --- |
| CCN[C@@H]1[C@H](C)[C@@H](O)[C@](C)(O)[C@@H](CC)OC(=O)[C@H](C)[C@@H](O[C@H]2C[C@@](C)(OC)[C@@H](O)[C@H](C)O2)[C@H](C)[C@@H](O[C@@H]2O[C@H](C)C[C@H](N(C)C)[C@H]2O)[C@](C)(O)C[C@H]1C [Compound 2, (9S)-9-Deoxo-9-(ethylamino)erythromycin] | 2 (≈ 2.62 µM) | 64 (≈ 83.9 µM) | 1 (≈ 1.31 µM) | 1 (≈ 1.31 µM) | 4 (≈ 5.24 µM) | 0.03 (≈ 0.0393 µM) | 1 (≈ 1.31 µM) | 32 (≈ 41.9 µM) | 4 (≈ 5.24 µM) | 0.125 (≈ 0.164 µM) | 0.25 (≈ 0.328 µM) | 13.4 | 23.4 | 12.5 |  |  |  |
| CCCN[C@@H]1[C@H](C)[C@@H](O)[C@](C)(O)[C@@H](CC)OC(=O)[C@H](C)[C@@H](O[C@H]2C[C@@](C)(OC)[C@@H](O)[C@H](C)O2)[C@H](C)[C@@H](O[C@@H]2O[C@H](C)C[C@H](N(C)C)[C@H]2O)[C@](C)(O)C[C@H]1C [Compound 3, 9-Deoxo-9-(n-propylamino)erythromycin] | 0.25 (≈ 0.322 µM) | 128 (≈ 165 µM) | 1 (≈ 1.29 µM) | 1 (≈ 1.29 µM) | 2 (≈ 2.57 µM) | 0.015 (≈ 0.0193 µM) | 0.5 (≈ 0.643 µM) | 32 (≈ 41.2 µM) | 4 (≈ 5.15 µM) | 0.03 (≈ 0.0386 µM) | 0.125 (≈ 0.161 µM) | 7.2 | 11.8 | 3.3 | 6.3 | 6.1 | ED50 (Streptococcus pneumoniae; [13]): 1.77 mg/kg; ED50 (Staphylococcus aureus; [13]): 6.11 mg/kg; Oral ED50 (Staphylococcus aureus; oral): 12.6 mg/kg; ED50 (Streptococcus pyogenes; [13]): 1.67 mg/kg |
| CCCCN[C@@H]1[C@H](C)[C@@H](O)[C@](C)(O)[C@@H](CC)OC(=O)[C@H](C)[C@@H](O[C@H]2C[C@@](C)(OC)[C@@H](O)[C@H](C)O2)[C@H](C)[C@@H](O[C@@H]2O[C@H](C)C[C@H](N(C)C)[C@H]2O)[C@](C)(O)C[C@H]1C [Compound 4, 9-Deoxo-9-(n-butylamino)erythromycin] | 1 (≈ 1.26 µM) | 128 (≈ 162 µM) | 0.25 (≈ 0.316 µM) | 1 (≈ 1.26 µM) | 1 (≈ 1.26 µM) | 0.015 (≈ 0.019 µM) | 0.25 (≈ 0.316 µM) | 64 (≈ 80.9 µM) | 1 (≈ 1.26 µM) | 0.06 (≈ 0.0758 µM) | 0.125 (≈ 0.158 µM) | 12.5 | 14.7 | 12.5 |  |  |  |
| CCCCCN[C@@H]1[C@H](C)[C@@H](O)[C@](C)(O)[C@@H](CC)OC(=O)[C@H](C)[C@@H](O[C@H]2C[C@@](C)(OC)[C@@H](O)[C@H](C)O2)[C@H](C)[C@@H](O[C@@H]2O[C@H](C)C[C@H](N(C)C)[C@H]2O)[C@](C)(O)C[C@H]1C [Compound 5, 9-Deoxo-9-(n-pentylamino)erythromycin] | 1 (≈ 1.24 µM) | 128 (≈ 159 µM) | 0.5 (≈ 0.621 µM) | 1 (≈ 1.24 µM) | 2 (≈ 2.48 µM) | 0.015 (≈ 0.0186 µM) | 0.5 (≈ 0.621 µM) | 128 (≈ 159 µM) | 2 (≈ 2.48 µM) | 0.06 (≈ 0.0745 µM) | 0.125 (≈ 0.155 µM) | 13.6 | 25 | 8.8 |  |  |  |
| CCCCCCCCN[C@@H]1[C@H](C)[C@@H](O)[C@](C)(O)[C@@H](CC)OC(=O)[C@H](C)[C@@H](O[C@H]2C[C@@](C)(OC)[C@@H](O)[C@H](C)O2)[C@H](C)[C@@H](O[C@@H]2O[C@H](C)C[C@H](N(C)C)[C@H]2O)[C@](C)(O)C[C@H]1C [Compound 8, 9-Deoxo-9-(n-octylamino)erythromcin] | 0.25 (≈ 0.295 µM) |  | 0.5 (≈ 0.59 µM) | 1 (≈ 1.18 µM) | 1 (≈ 1.18 µM) | 0.015 (≈ 0.0177 µM) | 0.25 (≈ 0.295 µM) |  | 1 (≈ 1.18 µM) | 0.015 (≈ 0.0177 µM) | 0.06 (≈ 0.0708 µM) | 46.1 | > 50 | 23.4 | > 50 | 38.3 | MIC [11]: 8 µg/mL (≈ 9.44 µM); MIC [12]: 8 µg/mL (≈ 9.44 µM) |
